From US20230255955A1, “AMELIORATING AGENT OR PROPHYLACTIC AGENT FOR MUSCLE WEAKNESS SYMPTOM IN DISEASE OR SYNDROME ASSOCIATED WITH METABOLIC DISORDER” (Toray Industries, Inc., priority 2020, published 2023)
Where a name gives a salt, the structure may show the parent alone.

Columns and labels:
[1] = test system: cancer cachexia patients; conditions: cited from earlier work
[2] = test system: A549 cells; test: Tumor volume in malignant tumor model (A549 cells transplanted to nude mice); format: in vivo, mouse; conditions: oral, every day for 28 days, 0.125 mg/kg and 0.25 mg/kg (both doses); tumor volume on 28th day; vs distilled water administered group
Experimental: (§1) On malignant tumor model animals obtained by transplanting A549 cells, adenocarcinomic human alveolar basal epithelial cells, to nude mice, an ameliorating action on a muscle weakness by administering (−)-17-(cyclopropylmethyl)-3,14β-dihydroxy-4,5α-epoxy-6β-[N-methyl-trans-3-(3-furyl)acrylamide]morphinan hydrochloride (hereinafter, compound 1) produced in accordance with International Publication No. WO 93/015081 was evaluated. […] For this reason, an evaluation of an ameliorating effect and a prophylactic effect on the muscle weakness symptom is considered to be possible.
(§2) A549 cell subculture was carried out using 10% FBS-containing RPMI 1640 medium. For an evaluation of drug efficacy, 7-week old female BALB/C slc/nu/nu mice (Japan SLC, Inc.) were purchased, acclimated for 1 week and then used. The malignant tumor model animal was created as follows. […] The tumor volume was determined by measuring a tumor diameter using a digital vernier caliper by the following calculating formula. […]
(§3) 43rd to 70th days from cell transplantation, compound 1 was orally administered every day to the malignant tumor model animals for 28 days. […] Using a grip test activity meter (Muromachi Kikai Co., Ltd.), a muscle strength was evaluated by measuring a gripping force of the forelimb on 28th day after starting administration of compound 1 (last day of the administration). […]

[3] = test system: malignant tumor model animals obtained by transplanting A549 cells to nude mice; test: Gripping force of the forelimb (grip test activity meter) in malignant tumor model; format: in vivo, mouse; conditions: oral, every day for 28 days, 0.125 mg/kg and 0.25 mg/kg (both doses), 28th day
Experimental: as §1, §2, §3

[4] = test system: SAMP8 mice; test: Gripping force of the forelimb (grip test activity meter) in senescence-accelerated model; format: in vivo, mouse; conditions: oral, every day for 28 days, 0.125 mg/kg and 0.25 mg/kg (both doses), 28th day, vs distilled water administered group, Williams' test P<0.05
Experimental: as §1, with “senescence-accelerated models, SAMP8” for “malignant tumor model animals obtained by transplanting A549 cells, adenocarcinomic human alveolar basal epithelial cells, to nude”, “(compound” for “(hereinafter, compound”
For the evaluation of drug efficacy, 7-week old male SAMP8/TaSlc mice (Japan SLC, Inc.) were purchased, then kept for 9 months and used for the test. For the total of 3 days from 3 days to 1 day before administration of the test substance, a gripping force of the forelimb was measured using a grip test activity meter, an average value of the 3 days was calculated, and then the mice were grouped in such a way that the average of muscle strengths in each group was equal. To clarify that the model is a muscle weakness model, a control of a senescence-accelerated model animal was set. […]
Compound 1 was orally administered to SAMP8 mice every day for 28 days. […] Using a grip test activity meter, the muscle strength was evaluated by measuring a gripping force of the forelimb on 28th day after starting administration of compound 1 (last day of the administration). […]

SMILES | ameliorating action on a muscle weakness symptom (physical function) [1] | lean body mass [1] | suppressing action on the tumor volume increase [2] | gripping force (muscle strength) compared with the model control group [3] | increasing action on the gripping force (muscle strength) ([3]; vs distilled water administered group, Dunnett's test P<0.05) | increasing action on the gripping force (muscle strength) [4]
CN(C)N(C)C(=O)[C@@]1(Cc2ccccc2)CCCN(C(=O)[C@@H](Cc2c[nH]c3ccccc23)NC(=O)C(C)(C)N)C1 [Anamorelin] | does not show an ameliorating action on a muscle weakness symptom | increases a lean body mass | – | – | – | –
CN(C(=O)/C=C/c1ccoc1)[C@@H]1CC[C@@]2(O)[C@H]3Cc4ccc(O)c5c4[C@@]2(CCN3CC2CC2)[C@H]1O5 [compound 1, (−)-17-(cyclopropylmethyl)-3,14β-dihydroxy-4,5α-epoxy-6β-[N-methyl-trans-3-(3-furyl)acrylamide]morphinan hydrochloride] | – | – | did not show any suppressing action on the tumor volume increase | ameliorated to the extent that is equal to the gripping force (muscle strength) of the model control group | statistically remarkable increasing action on the gripping force (muscle strength) | statistically remarkable increasing action on the gripping force (muscle strength)
C[C@](O)(COc1ccc(C#N)cc1)C(=O)Nc1ccc(C#N)c(C(F)(F)F)c1 [enobosarm] | the effect thereof is not acknowledged | increases a lean body mass | – | – | – | –
